Measured values taken from BindingDB's records for doi:10.1016/j.bmcl.2018.10.050 (Vanderbilt University, 2019).

Test: Inhibition of CYP1A2 (unknown origin)

## FC(F)(F)c1nccc2cc(Nc3n[nH]c4cccnc34)ccc12 [N-(1H-pyrazolo[4,3-b]pyridin-3-yl)-1-(trifluoromethyl) isoquinolin-6-amine]
  IC50: < 500 µM

## FC(F)(F)c1nccc2cc(Nc3n[nH]c4nccnc34)ccc12 [N-(1H-pyrazolo[3,4-b]pyrazin-3-yl)-1-(trifluoromethyl) isoquinolin-6-amine]
  IC50: < 500 µM
